# Assay results as given in PubChem BioAssay (NCI).
# Values joined by “and” are separate entries in the source; they are usually repeats but may differ in a detail not shown here. Equal values may be shown once.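 Test compounds were applied to cells in 96-well plates for 48 hours at 5 doses. At the GI50, growth is halved. TGI: total growth inhibition.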
# Test system: MDA-MB-468 breast
# Assay: inhibition of tumour cell growth, NCI panel, 48 h
SMILES,GI50,TGI
CN(C)S(=O)(=O)c1cccc(C(=O)Nc2nc(-c3ccc(F)c(F)c3)cs2)c1,3.79 µM,97.5 µM
COc1ccc(/C=C\c2cc(OC)c(OC)c(OC)c2)cc1NC(=O)/C=C/c1ccc(OC)c(OC)c1,1.9 µM,> 100 µM
C[C@H]1C[C@@H](n2c(Nc3ccc(OC(F)(F)F)cc3)nc3cc(CCC(=O)O)ccc32)CC(C)(C)C1,15.7 µM,38.6 µM
Cc1cc(NC(=O)NCCOc2ccc(N3C(N)=NC(N)=NC3(C)C)cc2Cl)ccc1S(=O)(=O)F,1.46 µM,27.6 µM
CN1CCN(C2=C(Cl)C(=O)c3ccccc3C2=O)CC1,1.11 µM,2.61 µM
NC(CSC(c1ccccc1)(c1ccccc1)c1ccccc1)C(=O)O (stereo not drawn),0.406 µM,6.24 µM
Cc1ccc(S(=O)(=O)c2nc(-c3ccc(F)cc3)oc2S(C)(=O)=O)cc1,2.5 µM,> 19.8 µM
CCCC(=O)Oc1ccc(/C(=C(\C)c2ccc(Cl)cc2)c2ccc(OCCN(CC)CC)cc2)cc1,1.53 µM,3.67 µM
COC(=O)CNC(=O)C(=O)c1c(O)c(O)c(C(C)C)c2cc(C)c(-c3c(C)cc4c(C(C)C)c(O)c(O)c(C(=O)C(=O)NCC(=O)OC)c4c3O)c(O)c12,1.46 µM,4.8 µM
Cc1cccc(N2CCN(C3=C(Cl)C(=O)c4ncccc4C3=O)CC2)c1,1.54 µM,3.08 µM
COc1ccc(-n2nc(C)c3c(Nc4ccc(NC(=O)Nc5cccc(C(F)(F)F)c5)cc4)ncnc32)cc1,2.02 µM,4.9 µM
CCN(Cc1ccc(Cl)c(Cl)c1)c1ccc2nc(N)nc(N)c2c1C,0.0138 µM,1.3 µM
CNC(=O)c1c(NC(=O)c2ccccc2C(F)(F)F)sc2c1CCC(=O)C2,1.81 µM,5.36 µM
O=C(CSc1nc2ccccc2c(=O)n1-c1ccc(Cl)cc1)N/N=C/c1ccc(Oc2ccc(Cl)cc2)cc1,2.08 µM,5.08 µM
O=C1/C(=C/c2ccc(F)cc2)COc2ccc(O)c(O)c21,2.28 µM,5.6 µM
COc1ccc(Cn2cc3c(c2-c2ccccc2)CCc2cnoc2-3)cc1,0.0795 µM,> 100 µM

SMILES,GI50,TGI
CCc1nc(N)nc(N)c1C#CC(C)c1ccc(-c2ccncc2)cc1Cl (stereo not drawn),,1.57 µM and 6.46 µM
O=[N+]([O-])c1ccccc1/C=N\NC(=S)N/N=C/c1ccccc1[N+](=O)[O-],1.4 µM,21.3 µM
O=C(CCN1CCCC1)Nc1ccc2c(Nc3ccc(F)cc3)c3ccccc3nc2c1,1.26 µM,2.8 µM
O=C(CSSCC(=O)c1ccc(Cl)cc1)c1ccc(Cl)cc1,2.26 µM,5.98 µM
O=C1c2c(c3c4cc(F)ccc4oc3c3[nH]c4ccccc4c23)C(=O)N1O,2.14 µM,7.93 µM
COc1cc2c(O[C@@H]3OC[C@H](OC(C)=O)[C@H](OC(C)=O)[C@H]3O)c3c(c(-c4ccc5c(c4)OCO5)c2cc1OC)C(=O)OC3,0.731 µM,> 10 µM
CC(=O)CC[N+](C)(C)C,1.75 µM,4.39 µM
O=[N+]([O-])c1ccc(Sc2cccc[n+]2[O-])c2nonc12,5.78 µM,20.7 µM
Nc1[nH]nc(Nc2ccccc2)c1-c1nc2ccccc2s1,2.23 µM,5.98 µM
COc1ccc(-c2nc(NC(=O)CS(=O)(=O)c3ccc(F)cc3)sc2C)cc1,7.05 µM,53.8 µM
CCN1C(=O)N(CC)C2C1NN=c1s/c(=C3\C(=O)Nc4ccccc43)c(=O)n12 (stereo not drawn),0.297 µM,2.82 µM
COc1ccc(CCN2CCCn3c2nc2ccccc2c3=O)cc1,0.0392 µM,43.9 µM
CN[C@@H](C)C(=O)N[C@H](C(=O)N1CCC[C@H]1c1nc(C(=O)c2ccc(F)cc2)cs1)C1CCCCC1,0.591 µM,20.3 µM
Cc1cccc(CNc2c3ccccc3nc3ccccc23)c1,1.58 µM,3.63 µM
Nc1c(C(=O)c2cccc(-c3cccnc3)c2)cnn1-c1ccc(F)cc1,> 25 µM,> 25 µM
O=C(O)CCCN1C(=O)/C(=C/C(Cl)=C/c2ccccc2)SC1=S,1.18 µM,3.29 µM
